Assay results taken from ChEMBL document CHEMBL5096151, “Phytocannabinoid Pharmacology: Medicinal Properties of Cannabis sativa Constituents Aside from the "Big Two"” (J Nat Prod, 2021).
Converted amounts (≈) assume the structure as drawn.

Legend:
[1] = molecular target: T1, Transient receptor potential cation channel subfamily A member 1 (Homo sapiens, UniProt O75762); assay: Agonist activity at TRPA1 (unknown origin) channel desensitization in presence of isothiocyanate
[2] = molecular target: T2, Transient receptor potential cation channel subfamily V member 1 (Homo sapiens, UniProt Q8NER1); assay: Agonist activity at ionomycin-stimulated TRPV1 (unknown origin) activation assessed as efficacy relative to control
T2 sequence (Q8NER1 whole entry): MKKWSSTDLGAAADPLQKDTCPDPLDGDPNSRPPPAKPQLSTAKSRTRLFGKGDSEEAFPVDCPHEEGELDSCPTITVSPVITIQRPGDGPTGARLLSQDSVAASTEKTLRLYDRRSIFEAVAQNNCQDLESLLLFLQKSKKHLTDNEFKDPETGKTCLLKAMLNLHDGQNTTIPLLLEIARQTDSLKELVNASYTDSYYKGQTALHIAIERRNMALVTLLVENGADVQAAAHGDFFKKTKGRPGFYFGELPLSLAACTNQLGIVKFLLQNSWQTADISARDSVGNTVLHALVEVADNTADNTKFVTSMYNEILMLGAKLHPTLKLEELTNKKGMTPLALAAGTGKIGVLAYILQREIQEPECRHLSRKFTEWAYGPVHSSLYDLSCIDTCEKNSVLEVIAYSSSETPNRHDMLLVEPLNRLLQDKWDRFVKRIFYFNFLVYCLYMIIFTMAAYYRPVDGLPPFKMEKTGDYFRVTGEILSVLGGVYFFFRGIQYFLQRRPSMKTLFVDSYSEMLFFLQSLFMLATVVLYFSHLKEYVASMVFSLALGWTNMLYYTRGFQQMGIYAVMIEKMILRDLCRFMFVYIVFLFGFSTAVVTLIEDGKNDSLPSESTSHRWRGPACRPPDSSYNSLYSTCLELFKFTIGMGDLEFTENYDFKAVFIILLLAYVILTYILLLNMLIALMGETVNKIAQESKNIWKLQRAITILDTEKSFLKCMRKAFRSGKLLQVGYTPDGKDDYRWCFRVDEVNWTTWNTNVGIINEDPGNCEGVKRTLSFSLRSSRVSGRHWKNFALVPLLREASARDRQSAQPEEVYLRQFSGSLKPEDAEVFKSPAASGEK

Cannabinoid receptor 1 [3] = molecular target: T3, Cannabinoid receptor 1 (Homo sapiens, UniProt P21554); assay: Binding affinity to CB1 (unknown origin) assessed as inhibition constant
T3 sequence (P21554 whole entry): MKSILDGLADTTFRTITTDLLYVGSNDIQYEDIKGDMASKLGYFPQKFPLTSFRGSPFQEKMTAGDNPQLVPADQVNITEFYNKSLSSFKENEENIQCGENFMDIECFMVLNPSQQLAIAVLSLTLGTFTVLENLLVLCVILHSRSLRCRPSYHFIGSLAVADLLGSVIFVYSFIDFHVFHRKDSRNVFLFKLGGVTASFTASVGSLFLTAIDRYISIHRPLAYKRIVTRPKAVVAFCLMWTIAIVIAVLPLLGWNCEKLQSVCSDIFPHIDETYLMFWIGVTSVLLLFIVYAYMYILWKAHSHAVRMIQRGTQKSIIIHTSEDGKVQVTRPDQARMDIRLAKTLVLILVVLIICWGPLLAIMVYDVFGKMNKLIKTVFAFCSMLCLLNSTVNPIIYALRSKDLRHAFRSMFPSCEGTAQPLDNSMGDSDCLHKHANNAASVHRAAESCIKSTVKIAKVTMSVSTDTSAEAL

[4] = molecular target: T4, Transient receptor potential cation channel subfamily V member 3 (Homo sapiens, UniProt Q8NET8); assay: Agonist activity at ionomycin-stimulated TRPV3 (unknown origin) activation
T4 sequence (Q8NET8 whole entry): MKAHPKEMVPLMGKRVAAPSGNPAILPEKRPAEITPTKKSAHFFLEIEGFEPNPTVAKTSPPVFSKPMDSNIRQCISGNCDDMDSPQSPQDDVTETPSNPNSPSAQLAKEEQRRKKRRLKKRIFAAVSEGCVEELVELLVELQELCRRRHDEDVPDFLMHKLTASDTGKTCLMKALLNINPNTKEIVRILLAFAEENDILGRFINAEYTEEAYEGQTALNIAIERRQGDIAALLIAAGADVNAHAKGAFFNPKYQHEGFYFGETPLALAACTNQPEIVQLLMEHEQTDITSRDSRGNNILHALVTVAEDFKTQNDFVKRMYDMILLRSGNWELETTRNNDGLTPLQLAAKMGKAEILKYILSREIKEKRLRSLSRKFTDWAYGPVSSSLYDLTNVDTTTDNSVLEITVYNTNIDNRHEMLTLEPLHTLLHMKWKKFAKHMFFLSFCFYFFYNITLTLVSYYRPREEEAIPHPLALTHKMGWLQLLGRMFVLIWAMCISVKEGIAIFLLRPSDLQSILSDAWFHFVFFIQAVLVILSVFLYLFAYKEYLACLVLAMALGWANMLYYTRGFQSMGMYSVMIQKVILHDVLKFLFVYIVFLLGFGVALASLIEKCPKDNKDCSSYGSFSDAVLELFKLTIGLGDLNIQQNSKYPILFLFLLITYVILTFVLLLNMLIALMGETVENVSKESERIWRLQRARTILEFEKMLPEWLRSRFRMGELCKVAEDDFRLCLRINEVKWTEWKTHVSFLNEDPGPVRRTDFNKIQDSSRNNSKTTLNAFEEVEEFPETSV

[5] = molecular target: T1, Transient receptor potential cation channel subfamily A member 1; assay: Agonist activity at TRPA1 (unknown origin) channel desensitization in presence of icilin
[6] = molecular target: T1, Transient receptor potential cation channel subfamily A member 1; assay: Agonist activity at TRPA1 (unknown origin) activation assessed as efficacy relative to control; settings: filed as agonist
Cannabinoid receptor 1 [7] = molecular target: T3, Cannabinoid receptor 1; assay: Binding affinity to CB1 (unknown origin) expressed in CHO -k1 cells assessed as inhibition constant; format: cell-based
[8] = molecular target: T1, Transient receptor potential cation channel subfamily A member 1; assay: Agonist activity at TRPA1 (unknown origin) activation
Staphylococcus aureus = assay: Antibacterial activity against methicillin-resistant Staphylococcus aureus; format: functional
Cytochrome P450 2B6 [9] = molecular target: T5, Cytochrome P450 2B6 (Homo sapiens, UniProt P20813); assay: Inhibition of recombinant human CYP2B6 using coumarin as substrate preincubated with NADPH for 20 mins and measured after 30 min by Lineweaver-burk plots analysis; format: ADME
T5 sequence (P20813 whole entry): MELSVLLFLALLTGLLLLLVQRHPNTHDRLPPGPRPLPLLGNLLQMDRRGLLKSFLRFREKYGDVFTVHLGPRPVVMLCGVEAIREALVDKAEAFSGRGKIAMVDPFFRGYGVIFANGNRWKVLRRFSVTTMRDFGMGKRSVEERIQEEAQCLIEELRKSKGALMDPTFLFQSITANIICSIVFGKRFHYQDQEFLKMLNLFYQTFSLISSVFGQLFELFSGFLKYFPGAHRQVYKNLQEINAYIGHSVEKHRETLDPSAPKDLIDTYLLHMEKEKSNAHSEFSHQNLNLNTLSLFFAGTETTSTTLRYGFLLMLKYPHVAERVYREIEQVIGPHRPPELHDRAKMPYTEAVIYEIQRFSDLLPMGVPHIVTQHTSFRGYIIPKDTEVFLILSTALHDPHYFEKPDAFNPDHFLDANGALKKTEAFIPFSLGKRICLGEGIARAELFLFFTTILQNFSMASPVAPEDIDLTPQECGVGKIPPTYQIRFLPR

Cannabinoid receptor 2 [10] = molecular target: T6, Cannabinoid receptor 2 (Homo sapiens, UniProt P34972); assay: Binding affinity to CB2 receptor (unknown origin) expressed in AtT20 cells assessed as inhibition constant; format: cell-based
T6 sequence (P34972 whole entry): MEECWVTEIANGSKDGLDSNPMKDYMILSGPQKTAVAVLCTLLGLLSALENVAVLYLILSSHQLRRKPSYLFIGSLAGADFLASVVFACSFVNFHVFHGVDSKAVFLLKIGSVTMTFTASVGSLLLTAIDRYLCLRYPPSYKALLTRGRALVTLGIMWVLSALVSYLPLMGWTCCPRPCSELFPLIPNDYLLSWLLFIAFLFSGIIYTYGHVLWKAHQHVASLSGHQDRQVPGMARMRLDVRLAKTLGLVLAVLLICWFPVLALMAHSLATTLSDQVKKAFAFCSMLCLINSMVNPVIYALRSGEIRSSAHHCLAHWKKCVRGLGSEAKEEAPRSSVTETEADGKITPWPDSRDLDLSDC

Cytochrome P450 2A6 [11] = molecular target: T7, Cytochrome P450 2A6 (Homo sapiens, UniProt P11509); assay: Non competitive inhibition of recombinant human CYP2A6 using coumarin as substrate preincubated with NADPH for 20 mins and measured after 30 min; format: ADME
T7 sequence (P11509 whole entry): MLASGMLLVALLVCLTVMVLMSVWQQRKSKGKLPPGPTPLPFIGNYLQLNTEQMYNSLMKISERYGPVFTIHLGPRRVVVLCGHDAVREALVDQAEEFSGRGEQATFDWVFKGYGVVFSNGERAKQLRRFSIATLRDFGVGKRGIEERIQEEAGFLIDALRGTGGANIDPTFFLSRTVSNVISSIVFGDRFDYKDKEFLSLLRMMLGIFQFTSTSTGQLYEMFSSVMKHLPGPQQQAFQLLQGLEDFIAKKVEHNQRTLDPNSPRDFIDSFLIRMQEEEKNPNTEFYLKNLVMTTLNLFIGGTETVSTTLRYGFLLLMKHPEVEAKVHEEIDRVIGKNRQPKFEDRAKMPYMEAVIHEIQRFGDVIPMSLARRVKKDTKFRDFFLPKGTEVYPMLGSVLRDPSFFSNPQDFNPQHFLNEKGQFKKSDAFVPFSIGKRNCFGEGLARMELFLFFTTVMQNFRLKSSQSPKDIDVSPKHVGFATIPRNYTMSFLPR

HT-22 = assay: Neuroprotection against glutamate-induced oxytosis in mouse HT-22 cells assessed as cell viability; format: functional, cell-based
[12] = molecular target: T8, Transient receptor potential cation channel subfamily V member 2 (Homo sapiens, UniProt Q9Y5S1); assay: Agonist activity at ionomycin-stimulated TRPV2 (unknown origin) activation
T8 sequence (Q9Y5S1 whole entry): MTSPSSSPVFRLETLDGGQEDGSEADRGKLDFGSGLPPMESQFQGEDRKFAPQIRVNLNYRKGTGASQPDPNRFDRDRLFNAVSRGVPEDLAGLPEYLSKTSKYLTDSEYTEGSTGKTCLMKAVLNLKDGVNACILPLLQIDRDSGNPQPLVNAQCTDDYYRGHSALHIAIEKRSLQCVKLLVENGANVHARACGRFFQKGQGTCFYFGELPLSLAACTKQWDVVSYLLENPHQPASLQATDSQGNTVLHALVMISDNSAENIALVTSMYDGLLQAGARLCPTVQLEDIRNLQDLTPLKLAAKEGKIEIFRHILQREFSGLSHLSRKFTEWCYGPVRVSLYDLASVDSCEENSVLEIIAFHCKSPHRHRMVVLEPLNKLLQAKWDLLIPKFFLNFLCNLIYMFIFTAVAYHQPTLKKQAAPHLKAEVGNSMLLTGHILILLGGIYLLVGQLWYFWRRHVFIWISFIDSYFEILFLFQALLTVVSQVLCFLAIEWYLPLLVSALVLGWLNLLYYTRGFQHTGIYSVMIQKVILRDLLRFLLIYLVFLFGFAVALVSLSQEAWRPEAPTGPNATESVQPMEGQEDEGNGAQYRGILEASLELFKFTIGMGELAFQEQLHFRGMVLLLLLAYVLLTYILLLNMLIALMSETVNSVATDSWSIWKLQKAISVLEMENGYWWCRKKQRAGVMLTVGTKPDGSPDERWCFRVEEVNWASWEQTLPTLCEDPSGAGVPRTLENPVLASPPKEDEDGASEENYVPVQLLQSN

[13] = molecular target: T9, Transient receptor potential cation channel subfamily V member 4 (Homo sapiens, UniProt Q9HBA0); assay: Agonist activity at ionomycin-stimulated TRPV4 (unknown origin) activation assessed as efficacy relative to control; settings: filed as agonist
T9 sequence (Q9HBA0 whole entry): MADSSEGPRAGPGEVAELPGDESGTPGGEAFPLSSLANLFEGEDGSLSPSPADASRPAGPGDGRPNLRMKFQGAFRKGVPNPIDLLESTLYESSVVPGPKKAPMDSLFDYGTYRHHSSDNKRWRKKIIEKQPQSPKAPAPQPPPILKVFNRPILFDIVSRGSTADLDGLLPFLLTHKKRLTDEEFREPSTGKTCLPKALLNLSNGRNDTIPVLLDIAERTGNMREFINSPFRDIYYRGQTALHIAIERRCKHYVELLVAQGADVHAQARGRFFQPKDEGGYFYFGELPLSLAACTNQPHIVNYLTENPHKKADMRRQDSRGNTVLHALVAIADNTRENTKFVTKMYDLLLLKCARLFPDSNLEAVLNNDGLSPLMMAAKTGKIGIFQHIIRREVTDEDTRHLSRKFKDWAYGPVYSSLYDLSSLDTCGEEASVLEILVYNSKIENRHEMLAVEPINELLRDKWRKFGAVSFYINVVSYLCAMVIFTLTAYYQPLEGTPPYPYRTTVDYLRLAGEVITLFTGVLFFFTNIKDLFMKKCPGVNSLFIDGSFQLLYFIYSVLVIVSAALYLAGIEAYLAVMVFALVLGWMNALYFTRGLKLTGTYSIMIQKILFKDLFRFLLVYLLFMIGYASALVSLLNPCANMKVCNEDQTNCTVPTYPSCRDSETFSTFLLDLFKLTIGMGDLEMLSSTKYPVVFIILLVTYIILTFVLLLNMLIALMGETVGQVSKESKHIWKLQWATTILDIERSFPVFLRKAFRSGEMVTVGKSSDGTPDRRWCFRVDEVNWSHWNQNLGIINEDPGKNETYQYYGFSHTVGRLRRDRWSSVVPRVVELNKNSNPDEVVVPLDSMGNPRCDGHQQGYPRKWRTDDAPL

[14] = molecular target: T4, Transient receptor potential cation channel subfamily V member 3; assay: Agonist activity at ionomycin-stimulated TRPV3 (unknown origin) channel desensitization in presence of carvacrol
Cytochrome P450 2J2 = Cytochrome P450 2J2 (Homo sapiens, UniProt P51589); assay: Non competitive inhibition of CYP2J2 (unknown origin) in presence of NADPH by LC-MS/MS analysis; format: ADME
Sequence of Cytochrome P450 2J2 (P51589 whole entry): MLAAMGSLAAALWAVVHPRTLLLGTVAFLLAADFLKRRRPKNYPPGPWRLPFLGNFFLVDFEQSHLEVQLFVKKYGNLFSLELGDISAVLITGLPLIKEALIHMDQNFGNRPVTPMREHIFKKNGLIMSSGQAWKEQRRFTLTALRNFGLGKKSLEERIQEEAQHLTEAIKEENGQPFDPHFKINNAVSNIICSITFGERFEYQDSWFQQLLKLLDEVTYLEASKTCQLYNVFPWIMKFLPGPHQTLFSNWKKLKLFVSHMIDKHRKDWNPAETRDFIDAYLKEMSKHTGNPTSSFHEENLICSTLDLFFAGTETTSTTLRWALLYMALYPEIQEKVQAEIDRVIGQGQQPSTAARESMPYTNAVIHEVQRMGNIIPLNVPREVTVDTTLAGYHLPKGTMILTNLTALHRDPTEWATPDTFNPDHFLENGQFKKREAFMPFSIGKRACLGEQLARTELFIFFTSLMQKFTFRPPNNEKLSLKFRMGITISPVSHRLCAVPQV

[15] = molecular target: T8, Transient receptor potential cation channel subfamily V member 2; assay: Agonist activity at ionomycin-stimulated TRPV2 (unknown origin) channel desensitization in presence of lysophosphatidylcholine
[16] = molecular target: T9, Transient receptor potential cation channel subfamily V member 4; assay: Agonist activity at ionomycin-stimulated TRPV4 (unknown origin) activation
[17] = molecular target: T9, Transient receptor potential cation channel subfamily V member 4; assay: Agonist activity at ionomycin-stimulated TRPV4 (unknown origin) channel desensitization in presence of 4alphaPDD
Cytochrome P450 2B6 [18] = molecular target: T5, Cytochrome P450 2B6; assay: Mixed inhibition of recombinant human CYP2B6 using coumarin as substrate preincubated with NADPH for 20 mins and measured after 30 min by Lineweaver-burk plots analysis; format: ADME
[19] = molecular target: T10, Transient receptor potential cation channel subfamily V member 3 (Homo sapiens) (UniProt Q8NET8); assay: Agonist activity at ionomycin-stimulated TRPV3 (unknown origin) activation assessed as efficacy relative to control; settings: filed as agonist
T10 sequence (whole entry): T4 sequence (Q8NET8 whole entry)

[20] = molecular target: T2, Transient receptor potential cation channel subfamily V member 1; assay: Agonist activity at ionomycin-stimulated TRPV1 (unknown origin) channel desensitization in presence of capsaicin
[21] = molecular target: T11, Transient receptor potential cation channel subfamily V member 2 (Homo sapiens) (UniProt Q9Y5S1); assay: Agonist activity at ionomycin-stimulated TRPV2 (unknown origin) activation assessed as efficacy relative to control; settings: filed as agonist
T11 sequence (whole entry): T8 sequence (Q9Y5S1 whole entry)

Cannabinoid receptor 2 [22] = molecular target: T6, Cannabinoid receptor 2; assay: Binding affinity to CB2 receptor (unknown origin) expressed in CHO -k1 cells assessed as inhibition constant; format: cell-based
Cytochrome P450 2A6 [23] = molecular target: T7, Cytochrome P450 2A6; assay: Non competitive inhibition of recombinant human CYP2A6 using coumarin as substrate preincubated with NADPH for 20 mins and measured after 30 min by Lineweaver-burk plots analysis; format: ADME

T1 sequence (O75762 whole entry): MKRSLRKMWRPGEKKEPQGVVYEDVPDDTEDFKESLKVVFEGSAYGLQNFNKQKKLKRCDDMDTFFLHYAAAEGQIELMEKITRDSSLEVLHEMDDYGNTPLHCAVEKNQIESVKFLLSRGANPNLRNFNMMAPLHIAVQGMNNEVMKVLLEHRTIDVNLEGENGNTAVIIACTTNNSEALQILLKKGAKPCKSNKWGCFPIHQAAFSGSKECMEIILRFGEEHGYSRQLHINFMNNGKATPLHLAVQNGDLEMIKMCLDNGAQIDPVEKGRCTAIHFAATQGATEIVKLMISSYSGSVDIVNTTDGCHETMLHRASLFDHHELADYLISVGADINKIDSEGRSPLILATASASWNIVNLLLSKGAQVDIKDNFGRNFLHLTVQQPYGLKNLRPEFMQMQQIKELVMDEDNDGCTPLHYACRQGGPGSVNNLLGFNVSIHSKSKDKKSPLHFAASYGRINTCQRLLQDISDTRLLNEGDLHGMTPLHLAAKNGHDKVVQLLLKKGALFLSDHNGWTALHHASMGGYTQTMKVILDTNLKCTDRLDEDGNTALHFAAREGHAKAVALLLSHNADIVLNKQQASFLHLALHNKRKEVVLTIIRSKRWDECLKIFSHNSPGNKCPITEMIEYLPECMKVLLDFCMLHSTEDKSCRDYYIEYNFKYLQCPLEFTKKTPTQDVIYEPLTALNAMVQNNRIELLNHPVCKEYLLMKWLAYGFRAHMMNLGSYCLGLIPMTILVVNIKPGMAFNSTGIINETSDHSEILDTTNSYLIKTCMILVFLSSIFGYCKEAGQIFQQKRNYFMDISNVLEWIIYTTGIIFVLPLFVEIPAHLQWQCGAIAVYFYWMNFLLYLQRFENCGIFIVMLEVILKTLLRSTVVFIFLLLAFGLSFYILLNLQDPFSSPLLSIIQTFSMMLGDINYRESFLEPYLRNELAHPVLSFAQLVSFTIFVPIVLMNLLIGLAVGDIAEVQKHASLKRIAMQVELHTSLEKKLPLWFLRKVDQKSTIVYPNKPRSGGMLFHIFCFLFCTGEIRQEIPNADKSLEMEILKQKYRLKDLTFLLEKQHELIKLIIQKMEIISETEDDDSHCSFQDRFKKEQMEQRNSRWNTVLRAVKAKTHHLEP

CCCCCc1cc(O)c2c(c1)OC(C)(C)c1ccc(C)cc1-2 [CANNABINOL]
IC50 [1]: 0.4 µM | Efficacy [2]: < 10% | Ki (Cannabinoid receptor 1 [3]): 1.1 µM | EC50 [4]: 5.3 µM | IC50 [5]: 0.21 µM | Efficacy [6]: 243% | Ki (Cannabinoid receptor 1 [7]): 0.07 µM | EC50 [8]: 0.18 µM | MIC (Staphylococcus aureus): 1 µg/mL (≈ 3.22 µM) | Ki (Cytochrome P450 2B6 [9]): 2.55 µM | Ki (Cannabinoid receptor 2 [10]): 0.3 µM | IC50 (Cytochrome P450 2A6 [11]): 30.4 µM | EC50 (HT-22): 0.61 µM | EC50 [12]: 19 µM | Efficacy [13]: 60% | IC50 [14]: 9.4 µM | IC50 (Cytochrome P450 2J2): 19 µM | IC50 [15]: 15.7 µM | EC50 [16]: 16.1 µM | IC50 [17]: 5.4 µM | Ki (Cytochrome P450 2B6 [18]): 39 µM | Efficacy [19]: 72% | IC50 [20]: 82 µM | Efficacy [21]: 74% | Ki (Cannabinoid receptor 2 [22]): 0.07 µM | Ki (Cytochrome P450 2A6 [23]): 1 µM
